Test results reported in patent US20230374025A1, “FGFR INHIBITOR COMPOUND AND USE THEREOF” (SHENZHEN KANGSU PHARMACEUTICAL TECHNOLOGY CO., LTD., priority 2021, published 2023).

Legend:
Format in all cases: biochemical
FGFR3 V555M = biological target: T1, FGFR3 V555M (Homo sapiens, UniProt P22607, V555M); test: Assay I: inhibitory activity against FGFR mutants (HTRF KinEASE-TK); conditions: ATP 20 μM, substrate TK 1 μM
T1 construct: purchased Signalchem F06-12GG
How it was run: (§1)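 HTRF KinEASE-TK on FGFR mutant kinases in buffer with 5 mM MgCl2, 1 mM DTT; compound 4-fold serial dilutions (2 mM DMSO start) preincubated 10 min, then TK-substrate-biotin/ATP, 50 min at room temperature. 665/615 nm ratio converted to % inhibition; IC50 from four-parameter fit.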

FGFR2 V564F = biological target: T2, FGFR2 V564F (Homo sapiens, UniProt P21802, V564F); test: as above; conditions: ATP 10 μM, substrate TK 1 μM
T2 construct: purchased Signalchem F05-12FG
T2 sequence (P21802 22-821 V564F): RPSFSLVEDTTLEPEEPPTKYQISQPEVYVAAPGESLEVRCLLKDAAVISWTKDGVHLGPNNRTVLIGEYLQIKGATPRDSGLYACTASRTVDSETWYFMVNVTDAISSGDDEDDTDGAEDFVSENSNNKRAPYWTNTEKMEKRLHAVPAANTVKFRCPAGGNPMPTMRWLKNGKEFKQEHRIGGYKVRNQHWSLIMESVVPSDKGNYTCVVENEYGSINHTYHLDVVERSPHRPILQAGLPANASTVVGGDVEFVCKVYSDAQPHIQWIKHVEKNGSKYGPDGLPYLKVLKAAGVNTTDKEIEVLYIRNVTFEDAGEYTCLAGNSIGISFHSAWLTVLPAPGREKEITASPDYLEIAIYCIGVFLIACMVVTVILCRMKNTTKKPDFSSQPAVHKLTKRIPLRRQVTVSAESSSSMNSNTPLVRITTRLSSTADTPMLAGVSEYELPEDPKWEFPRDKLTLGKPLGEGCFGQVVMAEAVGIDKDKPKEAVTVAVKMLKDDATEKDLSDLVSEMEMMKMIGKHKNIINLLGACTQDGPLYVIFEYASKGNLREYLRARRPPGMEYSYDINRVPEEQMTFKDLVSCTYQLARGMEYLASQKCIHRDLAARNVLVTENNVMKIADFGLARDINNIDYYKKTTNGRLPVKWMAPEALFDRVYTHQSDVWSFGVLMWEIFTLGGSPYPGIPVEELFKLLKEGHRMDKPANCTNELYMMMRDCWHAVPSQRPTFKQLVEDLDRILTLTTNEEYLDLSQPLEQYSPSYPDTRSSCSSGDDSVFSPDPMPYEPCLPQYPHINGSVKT
How it was run: as §1

FGFR1 V561M = biological target: T3, FGFR1 V561M (Homo sapiens, UniProt P11362, V561M); test: as above; conditions: ATP 5 μM, substrate TK 1 μM
T3 construct: purchased Signalchem F04-13G
T3 sequence (P11362 22-822 V561M): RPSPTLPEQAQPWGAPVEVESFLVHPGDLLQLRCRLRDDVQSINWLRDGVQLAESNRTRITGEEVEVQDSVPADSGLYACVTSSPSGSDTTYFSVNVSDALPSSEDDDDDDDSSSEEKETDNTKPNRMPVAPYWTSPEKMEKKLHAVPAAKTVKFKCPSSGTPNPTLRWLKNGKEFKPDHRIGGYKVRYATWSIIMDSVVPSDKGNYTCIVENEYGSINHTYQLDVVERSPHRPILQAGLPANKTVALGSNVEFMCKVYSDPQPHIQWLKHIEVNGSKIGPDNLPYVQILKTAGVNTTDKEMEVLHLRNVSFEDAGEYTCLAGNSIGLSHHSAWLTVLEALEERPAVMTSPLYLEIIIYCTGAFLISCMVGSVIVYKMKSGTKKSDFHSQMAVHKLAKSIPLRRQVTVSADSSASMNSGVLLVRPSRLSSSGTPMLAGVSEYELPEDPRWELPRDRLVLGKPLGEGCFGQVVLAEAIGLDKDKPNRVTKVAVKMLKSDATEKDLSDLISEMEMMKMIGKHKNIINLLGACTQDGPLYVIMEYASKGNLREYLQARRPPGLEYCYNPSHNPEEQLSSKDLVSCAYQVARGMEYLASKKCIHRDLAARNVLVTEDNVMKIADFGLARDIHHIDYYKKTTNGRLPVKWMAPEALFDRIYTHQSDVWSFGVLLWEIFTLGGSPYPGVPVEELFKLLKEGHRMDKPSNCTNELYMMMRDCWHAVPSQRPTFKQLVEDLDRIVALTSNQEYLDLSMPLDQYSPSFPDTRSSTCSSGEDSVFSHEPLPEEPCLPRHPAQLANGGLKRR
How it was run: as §1

VEGFR2 = biological target: T4, VEGFR2 (Homo sapiens, UniProt P35968); test: Assay I: VEGFR2 kinase inhibition (HTRF KinEASE-TK); conditions: ATP 5 μM, substrate TK 1 μM
T4 construct: purchased Carna 08-191
T4 sequence (P35968 20-1356): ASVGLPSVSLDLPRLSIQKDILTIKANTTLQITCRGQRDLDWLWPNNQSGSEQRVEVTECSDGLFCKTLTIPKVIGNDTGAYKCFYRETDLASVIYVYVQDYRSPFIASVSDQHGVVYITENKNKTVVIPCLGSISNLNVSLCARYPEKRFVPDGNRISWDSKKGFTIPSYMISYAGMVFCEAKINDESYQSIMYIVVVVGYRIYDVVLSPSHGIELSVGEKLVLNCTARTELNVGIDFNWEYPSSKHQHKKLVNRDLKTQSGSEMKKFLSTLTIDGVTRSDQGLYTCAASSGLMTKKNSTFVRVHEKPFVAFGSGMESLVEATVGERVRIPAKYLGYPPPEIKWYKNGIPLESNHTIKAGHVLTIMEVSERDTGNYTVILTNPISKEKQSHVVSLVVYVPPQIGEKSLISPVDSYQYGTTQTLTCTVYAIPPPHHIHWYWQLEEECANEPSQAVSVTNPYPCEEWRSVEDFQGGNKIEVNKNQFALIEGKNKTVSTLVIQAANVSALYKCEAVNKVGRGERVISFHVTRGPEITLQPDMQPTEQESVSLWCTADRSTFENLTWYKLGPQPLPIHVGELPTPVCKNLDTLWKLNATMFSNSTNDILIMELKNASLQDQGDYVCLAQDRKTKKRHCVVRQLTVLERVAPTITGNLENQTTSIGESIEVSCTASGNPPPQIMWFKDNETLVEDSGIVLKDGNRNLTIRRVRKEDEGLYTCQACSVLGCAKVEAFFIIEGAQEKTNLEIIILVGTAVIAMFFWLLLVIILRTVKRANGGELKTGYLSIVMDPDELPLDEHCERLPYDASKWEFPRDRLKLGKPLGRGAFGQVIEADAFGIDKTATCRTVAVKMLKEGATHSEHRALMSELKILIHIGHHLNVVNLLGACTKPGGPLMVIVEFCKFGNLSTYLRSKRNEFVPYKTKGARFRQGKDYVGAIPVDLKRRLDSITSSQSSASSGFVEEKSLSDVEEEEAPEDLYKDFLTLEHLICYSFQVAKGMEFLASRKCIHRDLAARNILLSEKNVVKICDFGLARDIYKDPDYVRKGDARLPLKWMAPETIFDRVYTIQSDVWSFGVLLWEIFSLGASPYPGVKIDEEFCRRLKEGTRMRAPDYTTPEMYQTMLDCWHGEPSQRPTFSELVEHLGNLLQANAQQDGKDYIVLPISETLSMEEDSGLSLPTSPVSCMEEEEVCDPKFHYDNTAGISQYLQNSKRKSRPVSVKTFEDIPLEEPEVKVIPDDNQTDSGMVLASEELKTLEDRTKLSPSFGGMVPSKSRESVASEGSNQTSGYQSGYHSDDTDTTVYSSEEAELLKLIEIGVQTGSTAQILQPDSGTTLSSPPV
How it was run: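 HTRF KinEASE-TK assay: kinase preincubated 10 min at room temperature with 4-fold compound dilutions (2 mM DMSO starting stock), then TK-substrate-biotin/ATP added for 50 min at room temperature in buffer with 5 mM MgCl2, 1 mM DTT. 665/615 nm ratio converted to % inhibition; IC50 by four-parameter fit.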

FGFR3 = biological target: T5, FGFR3 (Homo sapiens, UniProt P22607); test: Assay II: inhibitory activity against wild-type FGFR (HTRF KinEASE-TK); conditions: ATP 50 μM, substrate TK 1 μM
T5 construct: purchased Carna 08-135
T5 sequence (P22607 23-806): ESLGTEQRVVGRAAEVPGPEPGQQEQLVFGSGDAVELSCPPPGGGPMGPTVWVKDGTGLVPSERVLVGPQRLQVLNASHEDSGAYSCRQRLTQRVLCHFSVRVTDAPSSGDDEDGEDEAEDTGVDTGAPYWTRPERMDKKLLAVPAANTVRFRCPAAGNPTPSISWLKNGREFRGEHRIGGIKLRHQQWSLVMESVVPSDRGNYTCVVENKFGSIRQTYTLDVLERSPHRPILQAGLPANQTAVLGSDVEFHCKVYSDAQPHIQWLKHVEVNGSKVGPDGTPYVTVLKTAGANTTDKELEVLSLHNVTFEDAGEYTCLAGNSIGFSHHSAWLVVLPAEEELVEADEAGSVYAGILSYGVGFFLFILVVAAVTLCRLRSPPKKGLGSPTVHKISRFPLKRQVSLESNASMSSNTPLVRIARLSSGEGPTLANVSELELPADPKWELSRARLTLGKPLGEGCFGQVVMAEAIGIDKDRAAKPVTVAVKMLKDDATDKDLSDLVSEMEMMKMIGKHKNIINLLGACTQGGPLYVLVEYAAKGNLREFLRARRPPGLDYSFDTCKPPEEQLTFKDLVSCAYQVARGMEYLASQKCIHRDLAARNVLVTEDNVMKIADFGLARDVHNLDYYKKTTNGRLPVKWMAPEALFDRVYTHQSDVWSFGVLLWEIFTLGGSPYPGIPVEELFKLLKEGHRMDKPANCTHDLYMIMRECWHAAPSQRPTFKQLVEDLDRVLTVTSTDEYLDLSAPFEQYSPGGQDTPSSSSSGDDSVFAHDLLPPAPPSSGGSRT
Experimental: (§2) Assay II: Determination of Inhibitory Activity Against Wild-Type FGFR
(§3) 1. Reagents and Equipment
(§4) 2. Experimental Steps PGP-5T
(§5) 2.1 Preparation of 1× Kinase Reaction Buffer:
(§6) 1× Kinase reaction buffer was formulated with 1× volume of 5× kinase reaction buffer and 4× volume of water; 5 mM MgCl2; and 1 mM DTT.
(§7) 2.3 Screening of Compounds:
(§8) 1. Diluting a compound 4-fold in a dilution plate with DMSO, with a starting compound concentration of 2 mM.
(§9) 2. Diluting the compound 40-fold into 1× kinase reaction buffer and shaking it on a shaker for 20 minutes.
(§10) 3. Formulating 2×FGFR1/FGFR2/FGFR3 with 1× of enzyme reaction buffer.
(§11) 4. Adding 2 μl FGFR1/FGFR2/FGFR3 kinase (formulated in step 3) to each well of the reaction plate.
(§12) 5. Adding 1 μl of the compound diluted in buffer to each well, sealing the plate with a sealing membrane and centrifuging the plate at 1000 g for 30 seconds and leaving it at room temperature for 10 minutes.
(§13) 6. Formulating 2.5×TK-substrate-biotin and ATP mixture with 1× enzyme reaction buffer and add 2 μl of K-substrate-biotin/ATP mixture to the reaction plate.
(§14) 7. Sealing the plate with a sealing membrane and centrifuging the plate at 1000 g for 30 seconds and allowing it to react at room temperature for 50 minutes.
(§15) 8. Formulating 4× Sa-XL 665 (250 nM) with HTRF assay buffer.
(§16) 9. Adding 5 μl Sa-XL 665 and 5 μl TK-Antibody-Cryptate to each well, centrifuging it at 1000 g for 30 seconds, and allowing it to react for 1 hour at room temperature.
(§17) 10. Reading fluorescence signals at 615 nm (Cryptate) and 665 nm (XL665) with Biotek.
(§18) 3.1 Calculation of the ratio for each well: the ratio was calculated as 665/615 nm.
(§19) 3.3 Calculation of IC50 and plotting of inhibition curves for the compounds.
(§20) The IC50 (half inhibition concentration) of a compound was obtained using the following non-linear fitting equation, wherein data analysis was performed using Graphpad 6.0 software.
(§21) Y=Bottom+(Top−Bottom)/(1+10^((Log IC50−X)*Hill Slope)) • X: log value of compound concentration; and Y: inhibition rate (% inh)
(§22) 3.4 Validation of Results
(§23) Data were exported from Envision and analyzed manually. The ratios were converted to inhibition rates and IC50 was calculated by Prism GraphPad 6.0 from the inhibition rates. IC50 was calculated again by the ratios to verify accuracy of the results.

FGFR1 = biological target: T6, FGFR1 (Homo sapiens, UniProt P11362); test: as above; conditions: ATP 50 μM, substrate TK 1 μM
T6 construct: purchased Carna 08-133
T6 sequence (P11362 22-822): as the sequence (P11362 22-822 V561M) above, with M540V counted along it
Experimental: as §2, §3, §4, §5, §6, §7, §8, §9, §10, §11, §12, §13, §14, §15, §16, §17, §18, §19, §20, §21, §22, §23

FGFR2 = biological target: T7, FGFR2 (Homo sapiens, UniProt P21802); test: as above; conditions: ATP 50 μM, substrate TK 1 μM
T7 construct: purchased Carna 08-134
T7 sequence (P21802 22-821): as the sequence (P21802 22-821 V564F) above, with F543V counted along it
Experimental: as §2, §3, §4, §5, §6, §7, §8, §9, §10, §11, §12, §13, §14, §15, §16, §17, §18, §19, §20, §21, §22, §23

T1 sequence (P22607 397-806 V555M limits assumed): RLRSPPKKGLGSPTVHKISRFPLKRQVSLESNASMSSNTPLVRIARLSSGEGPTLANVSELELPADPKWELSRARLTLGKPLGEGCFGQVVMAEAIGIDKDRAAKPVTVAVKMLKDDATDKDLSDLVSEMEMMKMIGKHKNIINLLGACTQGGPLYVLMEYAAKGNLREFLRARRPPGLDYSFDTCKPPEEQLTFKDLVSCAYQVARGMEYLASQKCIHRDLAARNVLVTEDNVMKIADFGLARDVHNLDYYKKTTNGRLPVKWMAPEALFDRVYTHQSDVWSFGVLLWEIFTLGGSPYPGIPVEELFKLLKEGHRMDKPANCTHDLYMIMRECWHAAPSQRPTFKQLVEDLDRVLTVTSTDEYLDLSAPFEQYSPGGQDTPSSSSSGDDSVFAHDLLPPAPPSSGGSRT

SMILES | IC50 (FGFR3 V555M) [nM] | IC50 (FGFR2 V564F) [nM] | IC50 (FGFR1 V561M) [nM] | IC50 (VEGFR2) [nM] | IC50 (FGFR3) [nM] | IC50 (FGFR1) [nM] | IC50 (FGFR2) [nM]
CC(Oc1ccc2[nH]nc(-c3nc4c([nH]3)CN(C(=O)N3CC[C@H](O)C3)C4)c2c1)c1c(Cl)cncc1Cl (stereo partly drawn) [Compound 10, (2-(5-(1-(3,5-dichloropyridin-4-yl)ethoxy)-1H-indazol-3-yl)-4,6-dihydropyrrolo[3,4-d]imidazol-5(1H)-yl)((S)-3-hydroxypyrrolidin-1-yl)ketone] | 0.35 | 0.33 | 0.2 | 2.4 | 3.4 | 3.1 | 2.2
CC(Oc1ccc2[nH]nc(-c3nc4c([nH]3)CN(C)C4)c2c1)c1c(Cl)cncc1Cl (centres unmarked) [Compound 11, 5-(1-(3,5-dichloropyridin-4-yl)ethoxy)-3-(5-methyl-1,4,5,6-tetrahydropyrrolo[3,4-d]imidazol-2-yl)-1H-indazole] | 1.1 | 1.3 | 0.46 | 25.6 | 0.6 | 1.7 | 0.95
